Measured values as given in EP4438596A1, “DIAMINOPYRIMIDINE DERIVATIVES AS HDAC AND DHFR DUAL-TARGETING INHIBITORS AND USE THEREOF IN PREVENTING AND TREATING MALARIA” (Université de Lille, priority 2023, dated 2024).
Read-outs that look alike come from different tables or passages of the source.

Key:
[1] = test system: P. falciparum 3D7-infected erythrocytes; assay: Plasmodium falciparum growth inhibition assay (SYBR Green I, flow cytometry), drug-sensitive strain; format: cell-based; conditions: Plasmodium falciparum, 3D7, Erythrocyte, 48 h incubation
Method: (§1) Plates were incubated under standard P. falciparum culture conditions for 48 h. […] Fixed parasitized red blood cells (RBC) were stored at 4 °C in the dark until flow cytometry analysis. Parasite growth was assessed by flow cytometry on a BD FACS Cantoll (BD Biosciences) or a Attune™ NxT Flow Cytometer (Invitrogen). Cell doublets were excluded from the analysis using a forward scatter (FSC)-width versus FSC-area dot plot. Infected and uninfected erythrocytes were gated on the basis of their FSC and side scatter (SSC) signals. Fluorescence analysis (Green fluorescence FITC) was performed using BD FACSDiva software (BD Biosciences) on a total of 200,000 acquired events. […] Fluorescence of non-infected RBC was adjusted to plot between 10° and 10^2. Results are expressed as the percentage of growth inhibition.
(§2) All IC50 values were calculated using log-linear interpolation (www.antimalarial-icestimator.net), with mean values (± SD) determined over at least two independent experiments.

HEK293 cells = assay: Cytotoxicity on HEK293 cells (Alamar Blue); format: cell-based, Human; conditions: ratio of the minimum inhibitory concentration of HEK293 cells (50 µM) to the IC50 of Pf3D7
Method: Cells were seeded out at 1.5 × 10^3 cells per well in a 96-well cell culture plate (TPP, Switzerland).
After 24 h, Alamar Blue reagent (Invitrogen, CA) was added according to the manufacturer's instructions and incubated again for 21 h before samples were analyzed.

[2] = test system: multidrug-resistant P. falciparum line Dd2; assay: Plasmodium falciparum growth inhibition assay (SYBR Green I, flow cytometry), multidrug-resistant line; format: cell-based; conditions: line resistant to CQ, PYR and mefloquine, mean ± SD
Method: as §1, §2

[3] = test system: P. berghei ANKA parasites; assay: Peters 4-day suppressive test, oral efficacy in P. berghei-infected mice; format: in vivo, Plasmodium berghei; conditions: for activity in vivo against Plasmodium berghei: Experiment 2 (Fig. 2), 10mg/kg orally twice a day on days 0,1,2,3; for activity in vivo against Plasmodium berghei / number of mice showing blood parasites / parasitemia (mean ± sd): Balb/C mice; for parasites in treated mice, follow-up: until the end of the experiments; for parasite clearance after oral administration: 10 mg/kg
Method: Compounds powder was dissolved in DMSO and sonicated for 10 min. Appropriate volume of 50%W/v HPβCD was added dropwise under gentle swirling. After 10 min sonication, DPBS was added dropwise under gentle swirling and the mixture was sonicated again for 10 min. After checking the pH (5.5 - 7), the solution was filtered (0.22µm) and conserved at room temperature for max 2 days. Final concentration of compounds was 2.5 mg/mL, 1 mg/mL or 0.1 mg/mL for mice treatment with 25 mg/kg, 10 mg/kg or 1mg/kg doses.
10 weeks-old Balb/C male mice were purchased from Janvier Labs.
P. berghei ANKA parasites stabilates conserved in liquid nitrogen were thawed and injected intraperitoneally (ip) into 2-3 mice (10^6 infected red blood cells (RBC) / mouse). When parasitemia reached 3-5%, mice were bled and groups of six BALB/c male mice were infected with 10^6 P. berghei ANKA parasites (day 0), and treated per os (p.o.) twice a day on days 0, 1, 2 and 3. […] On day 4 post infection (p.i.), the peripheral blood parasitemia of all mice was evaluated via microscopic examination of Giemsa-stained thin blood smears. Parasitemia was then followed for two weeks.

[4] = mean ± SD, n ≥ 2, read-out: Pf3D7 IC50
[5] = Plasmodium falciparum, DD2, 48 h, n ≥ 2, read-out: PfDd2 IC50
[6] = Experiment 3, 1 mg/kg p.o. twice a day on days 0-3, day 4 p.i.
[7] = Experiment 3, 1 mg/kg p.o. twice a day on days 0-3, day 5 p.i.
[8] = Experiment 3, 1 mg/kg p.o. twice a day on days 0-3, day 6 p.i.
[9] = Experiment 3, 1 mg/kg p.o. twice a day on days 0-3, day 7 p.i.
[10] = Experiment 3, 1 mg/kg p.o. twice a day on days 0-3, day 8 p.i.
[11] = Experiment 3, 1 mg/kg p.o. twice a day on days 0-3, day 10 p.i.
[12] = Experiments 1 and 2, 10 mg/kg p.o. twice a day on days 0-3, day 4 p.i.
[13] = Experiments 1 and 2, 10 mg/kg p.o. twice a day on days 0-3

SMILES	IC50 [1, 4]	Selectivity Index HEK293 / Pf3D7 (HEK293 cells)	IC50 [2, 5]	activity in vivo against Plasmodium berghei [3]	number of mice showing blood parasites [3, 6]	number of mice showing blood parasites [3, 7]	parasitemia (mean ± sd) [3, 7]	number of mice showing blood parasites [3, 8]	parasitemia (mean ± sd) [3, 8]	number of mice showing blood parasites [3, 9]	parasitemia (mean ± sd) [3, 9]	number of mice showing blood parasites [3, 10]	parasitemia (mean ± sd) [3, 10]	number of mice showing blood parasites [3, 11]	parasitemia (mean ± sd) [3, 11]	parasites in treated mice [3, 12]	parasites in treated mice, follow-up [3, 13]	parasite clearance after oral administration [3]	other results
CCc1nc(N)nc(N)c1OCCOc1ccccc1CCC(=O)NO.Cl [2·HCl, 3-(2-[2-(2,4-Diamino-6-ethylpyrimidin-5-yloxy)ethoxy]phenyl)-N-hydroxypropanamide hydrochloride]	11.4 ± 7.9 nM	> 4.4E+06	–	–	–	–	–	–	–	–	–	–	–	–	–	–	–	–	–
CCc1nc(N)nc(N)c1OCCCOc1cccc(C(=O)NO)c1.Cl [8·HCl, 3-[3-(2,4-Diamino-6-ethylpyrimidin-5-yloxy)propoxy]-N-hydroxybenzamide hydrochloride]	0.845 ± 0.108 nM	–	138 nM	active in vivo	0/6	0/6	0%	2/6	0,08 ± 0,13%	2/6	0,32 ± 0,49%	3/6	1,37 ± 2,07%	4/6	2,41 ± 2,84%	undetectable	remained undetectable	achieved parasite clearance	IC50 ([2]; 48 h, n ≥ 2, listed as 8, hydrochloride, read-out: PfDd2 IC50): 138 ± 25.4 nM; ranking of activity against P. berghei infection ([3]; Experiment 3, 1 mg/kg p.o. twice a day on days 0-3): most active; parasites in treated mice [3, 6]: undetectable; parasitemia (mean ± sd) [3, 6]: 0%
CCc1nc(N)nc(N)c1OCCCOc1ccccc1/C=C/C(=O)NO.Cl [13·HCl, (E)-3-{2-[3-(2,4-Diamino-6-ethylpyrimidin-5-yloxy)propoxy]phenyl}-N-hydroxyacrylamide hydrochloride]	0.081 ± 0.043 nM	–	11.1 ± 7.2 nM	active in vivo	2/6	3/6	0,55 ± 0,83%	4/6	2,05 ± 2,37%	5/6	2,39 ± 2,22%	5/6	3,94 ± 3,06%	5/5	6,02 ± 2,66%	undetectable	remained undetectable	achieved parasite clearance	parasitemia (mean ± sd) ([3]; Experiment 3, 1 mg/kg p.o. twice a day on days 0-3, day 4 p.i., hydrochloride, 1 mg/kg): 0,12 ± 0,18%; parasitemia (mean ± sd) ([3]; Experiment 3, 1 mg/kg p.o. twice a day on days 0-3, day 4 p.i., listed as 13, hydrochloride, 1 mg/kg): 0.12%; IC50 ([1]; read-out: IC50 (Pf3D7)): < 0.1 nM
CCc1nc(N)nc(N)c1OCCCOc1cccc(C(=O)NOCc2ccccc2)c1 [Compound 12, N-(Benzyloxy)-3-[3-(2,4-diamino-6-ethylpyrimidin-5-yloxy)propoxy]benzamide]	4.84 ± 1.05 nM	> 1.0E+07	–	–	–	–	–	–	–	–	–	–	–	–	–	–	–	–	–
